# Assay results: PubChem BioAssay (NCI)
#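 96-well plates; 48 h exposure; 5 concentrations. Endpoints by linear interpolation between flanking doses. Not reached: highest tested concentration assigned. GI50: concentration for 50% inhibition of growth. TGI: total growth inhibition.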
# Assays:
# Assay in all cases: NCI anticancer screen, dose series, 48 h
# HCT-15 colon = test system: HCT-15 colon
# SF-295 CNS = test system: SF-295 CNS
# KM12 colon = test system: KM12 colon
# UO-31 renal = test system: UO-31 renal
# SF-539 CNS = test system: SF-539 CNS
# NCI-H226 lung = test system: NCI-H226 lung
# MOLT-4 leukemia = test system: MOLT-4 leukemia
# MALME-3M melanoma = test system: MALME-3M melanoma
# M19-MEL melanoma = test system: M19-MEL melanoma
# NCI-H522 lung = test system: NCI-H522 lung
# 786-0 renal = test system: 786-0 renal
# DMS 273 small cell lung = test system: DMS 273 small cell lung
# SN12C renal = test system: SN12C renal
# SNB-19 CNS = test system: SNB-19 CNS
# HCC-2998 colon = test system: HCC-2998 colon
# TK-10 renal = test system: TK-10 renal
# HT29 colon = test system: HT29 colon
# RXF 393 renal = test system: RXF 393 renal
# A549 NSCLC = test system: A549 NSCLC
# LXFL 529 NSCLC = test system: LXFL 529 NSCLC
# SNB-75 CNS = test system: SNB-75 CNS
# HOP-92 NSCLC = test system: HOP-92 NSCLC
# NCI-H23 lung = test system: NCI-H23 lung
# OVCAR-3 ovarian = test system: OVCAR-3 ovarian
# COLO 205 colon = test system: COLO 205 colon
# SF-268 CNS = test system: SF-268 CNS
# KM20L2 colon = test system: KM20L2 colon
# OVCAR-4 ovarian = test system: OVCAR-4 ovarian
# SK-MEL-5 melanoma = test system: SK-MEL-5 melanoma
# ACHN renal = test system: ACHN renal
# CAKI-1 renal = test system: CAKI-1 renal
# DMS 114 small cell lung = test system: DMS 114 small cell lung
# K-562 leukemia = test system: K-562 leukemia
# U251 CNS = test system: U251 CNS
# CCRF-CEM leukemia = test system: CCRF-CEM leukemia
# SK-MEL-2 melanoma = test system: SK-MEL-2 melanoma
# HCT-116 colon = test system: HCT-116 colon
# XF 498 CNS = test system: XF 498 CNS
# SK-MEL-28 melanoma = test system: SK-MEL-28 melanoma
# OVCAR-8 ovarian = test system: OVCAR-8 ovarian
# NCI-H460 lung = test system: NCI-H460 lung
# EKVX NSCLC = test system: EKVX NSCLC
# RPMI-8226 leukemia = test system: RPMI-8226 leukemia
# M14 melanoma = test system: M14 melanoma
# SK-OV-3 ovarian = test system: SK-OV-3 ovarian
# SR leukemia = test system: SR leukemia
# HOP-18 NSCLC = test system: HOP-18 NSCLC
# SW-620 colon = test system: SW-620 colon
# DLD-1 colon = test system: DLD-1 colon
# A498 renal = test system: A498 renal
# HL-60(TB) leukemia = test system: HL-60(TB) leukemia
# IGROV1 ovarian = test system: IGROV1 ovarian
# UACC-62 melanoma = test system: UACC-62 melanoma
# LOX IMVI melanoma = test system: LOX IMVI melanoma
# OVCAR-5 ovarian = test system: OVCAR-5 ovarian
# UACC-257 melanoma = test system: UACC-257 melanoma
smiles,measurement,setting,value
CN(C)N=Nc1ccccc1,TGI,HCT-15 colon,> 100 µM
same,TGI,SF-295 CNS,> 100 µM
same,TGI,KM12 colon,> 100 µM
same,TGI,UO-31 renal,> 100 µM
same,TGI,SF-539 CNS,> 100 µM
same,TGI,NCI-H226 lung,> 100 µM
same,TGI,MOLT-4 leukemia,> 100 µM
same,TGI,MALME-3M melanoma,> 100 µM
same,TGI,M19-MEL melanoma,> 100 µM
same,TGI,NCI-H522 lung,> 100 µM
same,TGI,786-0 renal,> 100 µM
same,TGI,DMS 273 small cell lung,> 100 µM
same,TGI,SN12C renal,> 100 µM
same,TGI,SNB-19 CNS,> 100 µM
same,TGI,HCC-2998 colon,> 100 µM
same,TGI,TK-10 renal,> 100 µM
same,TGI,HT29 colon,> 100 µM
same,TGI,RXF 393 renal,> 100 µM
same,TGI,A549 NSCLC,> 100 µM
same,TGI,LXFL 529 NSCLC,> 100 µM
same,TGI,SNB-75 CNS,> 100 µM
same,TGI,HOP-92 NSCLC,> 100 µM
same,TGI,NCI-H23 lung,> 100 µM
same,TGI,OVCAR-3 ovarian,> 100 µM
same,TGI,COLO 205 colon,> 100 µM
same,TGI,SF-268 CNS,> 100 µM
same,TGI,KM20L2 colon,> 100 µM
same,TGI,OVCAR-4 ovarian,> 100 µM
same,TGI,SK-MEL-5 melanoma,> 100 µM
same,TGI,ACHN renal,> 100 µM
same,TGI,CAKI-1 renal,> 100 µM
same,TGI,DMS 114 small cell lung,> 100 µM
same,TGI,K-562 leukemia,> 100 µM
same,TGI,U251 CNS,> 100 µM
same,TGI,CCRF-CEM leukemia,> 100 µM
same,TGI,SK-MEL-2 melanoma,> 100 µM
same,TGI,HCT-116 colon,> 100 µM
same,TGI,XF 498 CNS,> 100 µM
same,TGI,SK-MEL-28 melanoma,> 100 µM
same,TGI,OVCAR-8 ovarian,> 100 µM
same,TGI,NCI-H460 lung,> 100 µM
same,TGI,EKVX NSCLC,> 100 µM
same,TGI,RPMI-8226 leukemia,> 100 µM
same,TGI,M14 melanoma,> 100 µM
same,TGI,SK-OV-3 ovarian,> 100 µM
same,TGI,SR leukemia,> 100 µM
same,TGI,HOP-18 NSCLC,> 100 µM
same,TGI,SW-620 colon,> 100 µM
same,TGI,DLD-1 colon,> 100 µM
same,TGI,A498 renal,> 100 µM
same,TGI,HL-60(TB) leukemia,> 100 µM
same,TGI,IGROV1 ovarian,> 100 µM
CC(=O)[CH-]C(C)=O.CC(=O)[CH-]C(C)=O.CC(=O)[CH-]C(C)=O.[In+3],GI50,SF-295 CNS,> 100 µM
same,TGI,SF-295 CNS,> 100 µM
same,GI50,KM12 colon,> 100 µM
same,TGI,KM12 colon,> 100 µM
same,GI50,UO-31 renal,> 100 µM
same,TGI,UO-31 renal,> 100 µM
same,GI50,SF-539 CNS,> 100 µM
same,TGI,SF-539 CNS,> 100 µM
same,GI50,NCI-H226 lung,> 100 µM
same,TGI,NCI-H226 lung,> 100 µM
same,GI50,MOLT-4 leukemia,> 100 µM
same,TGI,MOLT-4 leukemia,> 100 µM
same,GI50,MALME-3M melanoma,> 100 µM
same,TGI,MALME-3M melanoma,> 100 µM
same,GI50,NCI-H522 lung,> 100 µM
same,TGI,NCI-H522 lung,> 100 µM
same,GI50,786-0 renal,> 100 µM
same,TGI,786-0 renal,> 100 µM
same,GI50,DMS 273 small cell lung,> 100 µM
same,TGI,DMS 273 small cell lung,> 100 µM
same,GI50,SN12C renal,> 100 µM
same,TGI,SN12C renal,> 100 µM
same,GI50,SNB-19 CNS,> 100 µM
same,TGI,SNB-19 CNS,> 100 µM
same,GI50,TK-10 renal,> 100 µM
same,TGI,TK-10 renal,> 100 µM
same,GI50,HT29 colon,> 100 µM
same,TGI,HT29 colon,> 100 µM
same,GI50,RXF 393 renal,> 100 µM
same,TGI,RXF 393 renal,> 100 µM
same,GI50,A549 NSCLC,> 100 µM
same,TGI,A549 NSCLC,> 100 µM
same,GI50,LXFL 529 NSCLC,> 100 µM
same,TGI,LXFL 529 NSCLC,> 100 µM
same,GI50,SNB-75 CNS,> 100 µM
same,TGI,SNB-75 CNS,> 100 µM
same,GI50,UACC-62 melanoma,> 100 µM
same,TGI,UACC-62 melanoma,> 100 µM
same,GI50,HOP-92 NSCLC,> 100 µM
same,TGI,HOP-92 NSCLC,> 100 µM
same,GI50,NCI-H23 lung,> 100 µM
same,TGI,NCI-H23 lung,> 100 µM
same,GI50,OVCAR-3 ovarian,> 100 µM
same,TGI,OVCAR-3 ovarian,> 100 µM
same,GI50,COLO 205 colon,> 100 µM
same,TGI,COLO 205 colon,> 100 µM
same,GI50,SF-268 CNS,> 100 µM
same,TGI,SF-268 CNS,> 100 µM
same,GI50,KM20L2 colon,> 100 µM
same,TGI,KM20L2 colon,> 100 µM
same,GI50,OVCAR-4 ovarian,> 100 µM
same,TGI,OVCAR-4 ovarian,> 100 µM
same,GI50,LOX IMVI melanoma,> 100 µM
same,TGI,LOX IMVI melanoma,> 100 µM
same,GI50,SK-MEL-5 melanoma,> 100 µM
same,TGI,SK-MEL-5 melanoma,> 100 µM
same,GI50,ACHN renal,> 100 µM
same,TGI,ACHN renal,> 100 µM
same,GI50,CAKI-1 renal,> 100 µM
same,TGI,CAKI-1 renal,> 100 µM
same,GI50,DMS 114 small cell lung,> 100 µM
same,TGI,DMS 114 small cell lung,> 100 µM
same,GI50,K-562 leukemia,> 100 µM
same,TGI,K-562 leukemia,> 100 µM
same,GI50,U251 CNS,> 100 µM
same,TGI,U251 CNS,> 100 µM
same,GI50,CCRF-CEM leukemia,> 100 µM
same,TGI,CCRF-CEM leukemia,> 100 µM
same,GI50,SK-MEL-2 melanoma,> 100 µM
same,TGI,SK-MEL-2 melanoma,> 100 µM
same,GI50,HCT-116 colon,> 100 µM
same,TGI,HCT-116 colon,> 100 µM
same,GI50,OVCAR-5 ovarian,> 100 µM
same,TGI,OVCAR-5 ovarian,> 100 µM
same,GI50,XF 498 CNS,> 100 µM
same,TGI,XF 498 CNS,> 100 µM
same,GI50,SK-MEL-28 melanoma,> 100 µM
same,TGI,SK-MEL-28 melanoma,> 100 µM
same,GI50,OVCAR-8 ovarian,> 100 µM
same,TGI,OVCAR-8 ovarian,> 100 µM
same,GI50,NCI-H460 lung,> 100 µM
same,TGI,NCI-H460 lung,> 100 µM
same,GI50,RPMI-8226 leukemia,> 100 µM
same,TGI,RPMI-8226 leukemia,> 100 µM
same,GI50,M14 melanoma,> 100 µM
same,TGI,M14 melanoma,> 100 µM
same,GI50,SK-OV-3 ovarian,> 100 µM
same,TGI,SK-OV-3 ovarian,> 100 µM
same,GI50,SR leukemia,> 100 µM
same,TGI,SR leukemia,> 100 µM
same,GI50,HOP-18 NSCLC,52.4 µM
same,TGI,HOP-18 NSCLC,> 100 µM
same,GI50,SW-620 colon,> 100 µM
same,TGI,SW-620 colon,> 100 µM
same,GI50,UACC-257 melanoma,> 100 µM
same,TGI,UACC-257 melanoma,> 100 µM
same,GI50,DLD-1 colon,> 100 µM
same,TGI,DLD-1 colon,> 100 µM
same,GI50,A498 renal,> 100 µM
same,TGI,A498 renal,> 100 µM
same,GI50,HL-60(TB) leukemia,> 100 µM
same,TGI,HL-60(TB) leukemia,> 100 µM
same,GI50,IGROV1 ovarian,> 100 µM
same,TGI,IGROV1 ovarian,> 100 µM
